The source of these data is patent publication EP3981864A1, “DETERGENT COMPOSITION” (priority 2020, dated 2022).

The structures appear in SMILES notation.

This test deals with T1, Arabidopsis thaliana αDOX (SEQ ID NO: 10), fatty acid alpha-dioxygenase, Q9C9U3, variant with N-terminal His-tag, MBP tag and TEV site SEQ ID NO: 267 (comparati (Arabidopsis thaliana, UniProt Q9C9U3)).
T1 construct: His-tag (N); MBP tag (N); TEV protease cleavage site (N); made in house; host or cells: Escherichia coli BL21 (DE3), modified pET28a
T1 sequence (Q9C9U3 21-631): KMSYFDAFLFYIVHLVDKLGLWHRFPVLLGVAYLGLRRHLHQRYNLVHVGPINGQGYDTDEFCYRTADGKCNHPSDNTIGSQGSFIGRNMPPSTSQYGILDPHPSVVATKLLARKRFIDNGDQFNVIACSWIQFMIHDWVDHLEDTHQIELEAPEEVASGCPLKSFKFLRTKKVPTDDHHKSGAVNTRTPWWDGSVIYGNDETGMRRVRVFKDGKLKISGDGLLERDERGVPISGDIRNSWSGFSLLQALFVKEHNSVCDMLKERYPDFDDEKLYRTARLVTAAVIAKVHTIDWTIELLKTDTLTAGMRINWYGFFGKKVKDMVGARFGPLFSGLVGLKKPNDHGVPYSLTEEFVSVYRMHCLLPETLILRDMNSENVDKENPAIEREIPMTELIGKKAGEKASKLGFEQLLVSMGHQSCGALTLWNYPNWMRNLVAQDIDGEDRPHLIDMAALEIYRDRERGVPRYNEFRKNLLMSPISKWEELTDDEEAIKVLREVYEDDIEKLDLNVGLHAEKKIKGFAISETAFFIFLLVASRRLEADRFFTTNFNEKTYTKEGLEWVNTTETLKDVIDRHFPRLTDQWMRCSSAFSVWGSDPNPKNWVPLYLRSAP
The test is described as follows: Alpha-dioxygenase activity assay (oxygen consumption, TON). It is filed as biochemical. The note with it: fatty acid 100 µM, enzyme 6 ppm, 50 mM HEPES pH 9.0, 37°C; initial rate of oxygen consumption / enzyme concentration. The text has this: Arabidopsis thaliana αDOX (SEQ ID NO: 10) is a fatty acid alpha-dioxygenase that converts fatty acids into the corresponding 2-hydroperoxy fatty acids and is included as a comparative example of the present invention. A codon optimized gene (SEQ ID NO: 266) encoding for an alpha-dioxygenase variant was designed and synthesized by Genscript. After synthesis, the gene was cloned into a modified version of pET28a, such as the final plasmid encoded for a αDOX variant including an N-terminal amino acid sequence containing a His-tag, an MBP tag, and a TEV protease cleavage site (SEQ ID NO: 267). For heterologous expression, Escherichia coli BL21 (DE3) cells were transformed with the recombinant plasmid and a single colony was inoculated into LB medium containing kanamycin (50 mg/L). A pre-starter culture was then inoculated into flasks containing TB Media supplemented with kanamycin (50 mg/L) and incubated at 37 °C. At an OD600nm about 3.8, IPTG (final concentration 0.1 mM) and 5-aminolevulinic acid (final concentration 0.25 mM) were added to the culture and further incubated at 16 °C for 16 h. Cells were harvested by centrifugation and the pellet was lysed. After centrifugation, the supernatant was collected, and the protein was purified by one-step purification using Ni-NTA affinity chromatography and standard protocols known in the art. The protein was stored in 1×PBS buffer containing 10% Glycerol and at pH 7.4. The purified enzyme was stored at -80 °C until use.
Reactions with alpha-dioxygenases were performed as follows. An aliquot of fatty acid in ethanol (final concentration 100 µM) was resuspended in buffer (50 mM HEPES at pH 9.0) in a scintillation vial. The reaction was started by addition of enzyme (final concentration 6 ppm). The reaction was incubated for up to 10 minutes at 37°C with 200 rpm agitation and the conversion was monitored using an oxygen sensor. The TON (in s-1) were calculated as the ratio between the initial rate of oxygen consumption (in µM/s) and the concentration of enzyme (in µM). […]

`CCCCCCCC/C=C\CCCCCCCC(=O)O` [Oleic Acid]: the “Oleic Acid, TON” value came to 0.13 s⁻¹. For the compound `CCCCCCCCCCCCCCCC(=O)O` [Palmitic Acid], the “Palmitic Acid, TON” value amounted to 0.54 s⁻¹. Regarding `CCCCCCCCCCCCCCCCCC(=O)O` [Stearic Acid], the “Stearic Acid, TON” value stood at 0.13 s⁻¹.
